The text below walks through data of patent US9550763B2, “Heterocyclic ring and carbocyclic derivative” (Shionogi & Co., Ltd., priority 2012, dated 2017).

In the first assay the target is T1, human P2X3 receptor (Homo sapiens (Human), UniProt P56373). The assay can be described thus: Evaluation of human P2X3 receptor inhibitory activity (Test Example 1-1, FDSS 3000, 96-well, 50 nM ATP). The class given is cell-based. As to conditions: human P2X3 receptor in C6BU-1 cells; Test Example 1-1 (compounds I-001 to I-300). The method in brief: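 C6BU-1 cells stably expressing human P2X3, loaded with 4 μM Fluo-3-AM (pH 7.5), preincubated 5 min with compound before 50 nM ATP challenge; fluorescence followed 4 min on FDSS 3000. IC50 derived from peak/baseline fluorescence ratio, no-compound as 0% and buffer-instead-of-ATP as 100% inhibition.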
T1 sequence (P56373 whole entry): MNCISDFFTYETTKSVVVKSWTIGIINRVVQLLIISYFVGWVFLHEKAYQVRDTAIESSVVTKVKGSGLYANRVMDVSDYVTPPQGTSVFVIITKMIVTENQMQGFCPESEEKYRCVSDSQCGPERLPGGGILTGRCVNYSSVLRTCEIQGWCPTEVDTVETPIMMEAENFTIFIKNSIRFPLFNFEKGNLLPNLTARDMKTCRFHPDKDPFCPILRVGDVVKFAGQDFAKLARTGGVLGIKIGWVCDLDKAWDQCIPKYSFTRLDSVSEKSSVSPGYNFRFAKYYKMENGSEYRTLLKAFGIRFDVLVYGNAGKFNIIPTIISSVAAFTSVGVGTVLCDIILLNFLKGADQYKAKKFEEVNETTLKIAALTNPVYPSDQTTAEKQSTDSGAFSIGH
Usually IC50 stands for the point on the concentration scale where inhibition reaches its midpoint. With `NC(=O)c1ccc(Oc2ccc(Nc3nc(=O)c(C(=O)NC4CCOCC4)cn3Cc3ccc(Cl)cc3)cc2)cn1` [Compound I-200], the IC50 worked out at 10 nM.

Take `Cc1cc(Nc2ncc(NC(=O)C3CCOCC3)c(=O)n2Cc2ccc(Cl)cc2)ccc1Oc1cccc(F)n1` [Compound I-135]: half-maximal inhibition (IC50) required 2 nM. Still for that read-out and setting: the same measure for `NC(=O)c1ccc(Oc2ccc(Nc3nc(=O)c(C(=O)NC4CCOCC4)cn3Cc3ccc(Cl)cc3)cc2)nc1` [Compound I-239]: 5 nM; for `Cc1cc(Nc2nc(=O)c(C(=O)NC3CCOCC3)cn2Cc2ccc(Cl)cc2)ccc1Oc1cccc(F)n1` [Compound I-157]: 11 nM; for `CCn1c(=O)cc(Nc2ccc(Oc3cccc(C(=O)O)n3)cc2)n(Cc2ccc(Cl)cc2)c1=O` [Compound I-040]: 3 nM. As to `Cc1ccc(Oc2ccc(Nc3ncc(NC(=O)C4CCOCC4)c(=O)n3Cc3ccc(Cl)cc3)cc2)nn1` [Compound I-137], the IC50 was 1 nM. For the molecule `CN(C)C(=O)c1c[nH]/c(=N\c2ccc(Oc3cccc(C(N)=O)n3)cc2)n(Cc2ccc(Cl)cc2)c1=O` [Compound I-220], the half-inhibitory concentration (IC50) is 178 nM. `CCc1oc2ccc(Nc3nc(=O)c(C(=O)NC(C)C)cn3Cc3ccc(Cl)cc3)cc2c1C` [Compound I-022] gave an IC50 of 94 nM. The same measure, in the same setting: the same measure for `CN(C)C(=O)CNC(=O)c1cn(Cc2ccc(Cl)cc2)c(Nc2ccc(Oc3cccc(F)n3)cc2)nc1=O` [Compound I-299]: 18 nM; for `CC(C)(C)OC(=O)N1CCC(C(=O)Nc2c[nH]/c(=N\c3ccc(Oc4ccon4)cc3)n(Cc3ccc(Cl)cc3)c2=O)CC1` [Compound I-182]: 52 nM; for `CCn1c(=O)cc(Nc2ccc(Oc3cccc(C#N)n3)c(C)c2)n(Cc2ccc(Cl)cc2)c1=O` [Compound I-012]: 2 nM. Same read-out and setting: the same measure for `CCn1c(=O)cc(Nc2ccc(Oc3ncc(C(=O)O)s3)cc2)n(Cc2ccc(Cl)cc2)c1=O` [Compound I-013]: 2 nM.

Another assay concerns the target T1, human P2X3 receptor. The assay is described as follows: Evaluation of human P2X3 receptor inhibitory activity (Test Example 1-2, FLIPR 384, 384-well, 150 nM ATP). To be noted: C6BU-1 cell transfected with human P2X3 receptor gene; method of Test Example 1-2 (compounds I-301 to I-483); read-out: IC50 (human P2X3 receptor inhibitory activity). The class given is cell-based. The method, then: Stably expressing cell line (C6BU-1 cell transfected with human P2X3 receptor gene (GenBank accession number Y07683) was used. The cells were seeded in a 384-well microtiter plate at a concentration of 3000 cells/well and cultured in the medium (7.0% fetal bovine serum, 7.0% horse serum, 1% antibiotic and antifungal in DMEM) for one day at 37° C. under 5% carbon dioxide atmosphere. The medium was replaced with 4 μM Fluo-3-AM solution (20 mM HEPES, […], 5.27 mM KCl, 0.9 mM MgCl2, 1.26 mM CaCl2, 5.6 mM D-glucose, 2.5 mM probenecid, 0.5% BSA, and 0.04% Pluronic F-127, pH 7.5) and incubated at 37° C. under 5% dioxide carbon atmosphere for one hour. The plate was washed with washing buffer (20 mM HEPES, 137 mM NaCl, 5.27 mM KCl, 0.9 mM MgCl2, 1.26 mM CaCl2, 5.6 mM D-glucose, 2.5 mM probenecid, pH7.5), and each well was added with 20 μL of this buffer. The plate was placed in High-Throughput Screening System FLIPR 384 (Molecular Device Co.). Measurement of fluorescence intensity by FLIPR 384 was started, and 20 μL of DMSO solutions containing different concentrations of the test compound as prepared by dilution with dilution buffer (20 mM HEPES, 137 mM NaCl, 5.27 mM KCl, 0.9 mM MgCl2, 1.26 mM CaCl2, 5.6 mM D-glucose, 2.5 mM probenecid, 0.1% Pluronic F-127, pH 7.5) were dispensed to each well through the built-in automatic dispenser. Five minutes after, 150 nM ATP solution (25 μL) prepared by dilution with the dilution buffer was dispensed through the built-in automatic dispenser, and the measurement of fluorescence intensity was continued for 4 min. For each well, the specific maximum fluorescence intensity was calculated as the ratio of the maximum fluorescence intensity after addition of the ATP solution to the fluorescence intensity at the starting of the measurement. The 50% inhibitory concentration (IC50) was calculated under the assumption that the specific maximum fluorescence intensity without test compound is 0% inhibition and that the specific maximum fluorescence intensity when the dilution buffer was added in place of ATP solution is 100% inhibition, to evaluate the inhibitory activity of the test compound. The specific maximum fluorescence intensity and IC50 were calculated using Spotfire (Science & Technology Systems, Inc.)
The data of the compounds I-001 to I-300 are the results by the method mentioned in Test Example 1-1, and the data of the compounds I-301 to I-483 are the results by the method mentioned in Test Example 1-2.
Regarding `CC(C)n1ccc(Nc2ccc(Oc3cccc(C(N)=O)n3)cc2)c(Cc2ccc(Cl)cc2)c1=O` [Compound I-467], the IC50 was under 30000 nM.

The same assay, now with this note: human P2X3 receptor in C6BU-1 cells; Test Example 1-2 (compounds I-301 to I-483); read-out: P2X3 IC50.
On to `Cc1ccccc1Cn1cc(C(=O)NC2CCOCC2)c(=O)nc1Nc1ccc(Oc2cccc(F)n2)cc1` [Compound I-357], for which the IC50 was determined as 781 nM. On to `O=C(NCC(=O)N1CCCCC1)c1cn(Cc2ccc(Cl)cc2)c(Nc2ccc(Oc3cccc(F)n3)cc2)nc1=O` [Compound I-382], for which the IC50 turned out to be 9 nM. Turning to `O=C(O)c1cccc(Oc2ccc(/N=c3\[nH]cc(C(F)(F)F)c(=O)n3Cc3ccc(Cl)cc3)cc2)n1` [Compound I-472], the IC50 is 15 nM. As for `O=C(O)c1cccc(Oc2ccc(/N=c3\[nH]cc(C4CCOCC4)c(=O)n3Cc3ccc(Cl)cc3)cc2)n1` [Compound I-478], the IC50 worked out at 5 nM. Same read-out and setting: in the case of `COC(=O)c1nnc(-c2c[nH]/c(=N\c3ccc(Oc4ccon4)cc3)n(Cc3ccc(Cl)cc3)c2=O)o1` [Compound I-438] it was 109 nM; in that of `Cc1cc(NC(=O)c2cn(Cc3ccc(Cl)cc3)c(Nc3ccc(Oc4cccc(F)n4)cc3)nc2=O)no1` [Compound I-371], 80 nM; in that of `Cc1nc(CNC(=O)c2cn(Cc3ccc(Cl)cc3)c(Nc3ccc(Oc4cccc(F)n4)cc3)nc2=O)no1` [Compound I-392], 128 nM. Still for that read-out and setting: the same measure for `CN(C)C(=O)c1c[nH]/c(=N\c2ccc(Oc3ccon3)cc2)n(Cc2ccc(Cl)cc2)c1=O` [Compound I-346]: 346 nM; for `NC(=O)c1cccc(Oc2ccc(/N=c3\[nH]cc(C4CCOCC4)c(=O)n3Cc3ccc(Cl)cc3)cc2)n1` [Compound I-483]: 17 nM. Turning to `CCn1c(=O)cc(Nc2ccc3nc(C(F)F)sc3c2)n(Cc2ccc(Cl)cc2)c1=O` [Compound I-326], the IC50 stood at 328 nM. Take `O=c1c(Nc2ccon2)c[nH]/c(=N\c2ccc(Oc3ccc(F)cn3)cc2)n1Cc1ccc(Cl)cc1` [Compound I-318]: the half-inhibitory concentration (IC50) was found to be 27 nM. For `O=C(NCC1CC1)c1c[nH]/c(=N\c2ccc(Oc3cccc(F)n3)cc2)n(Cc2ccc(Cl)cc2)c1=O` [Compound I-407], the IC50 is 68 nM.
